According to patent US20250009737A1, “COMPOUNDS AND METHODS FOR THE TARGETED DEGRADATION OF ANDROGEN RECEPTOR” (Arvinas Operations, Inc., priority 2023, published 2025):

Assays:
Assay type in all cases: in vitro ADME
OATP1B3 = molecular target: T1, OATP1B3 (Homo sapiens, UniProt Q9NPD5); experiment: OATP1B3 uptake transporter substrate assay; parameters: expressed in transfected cells; settings: OATP1B3-expressing vs control cell
T1 sequence (Q9NPD5 1-702): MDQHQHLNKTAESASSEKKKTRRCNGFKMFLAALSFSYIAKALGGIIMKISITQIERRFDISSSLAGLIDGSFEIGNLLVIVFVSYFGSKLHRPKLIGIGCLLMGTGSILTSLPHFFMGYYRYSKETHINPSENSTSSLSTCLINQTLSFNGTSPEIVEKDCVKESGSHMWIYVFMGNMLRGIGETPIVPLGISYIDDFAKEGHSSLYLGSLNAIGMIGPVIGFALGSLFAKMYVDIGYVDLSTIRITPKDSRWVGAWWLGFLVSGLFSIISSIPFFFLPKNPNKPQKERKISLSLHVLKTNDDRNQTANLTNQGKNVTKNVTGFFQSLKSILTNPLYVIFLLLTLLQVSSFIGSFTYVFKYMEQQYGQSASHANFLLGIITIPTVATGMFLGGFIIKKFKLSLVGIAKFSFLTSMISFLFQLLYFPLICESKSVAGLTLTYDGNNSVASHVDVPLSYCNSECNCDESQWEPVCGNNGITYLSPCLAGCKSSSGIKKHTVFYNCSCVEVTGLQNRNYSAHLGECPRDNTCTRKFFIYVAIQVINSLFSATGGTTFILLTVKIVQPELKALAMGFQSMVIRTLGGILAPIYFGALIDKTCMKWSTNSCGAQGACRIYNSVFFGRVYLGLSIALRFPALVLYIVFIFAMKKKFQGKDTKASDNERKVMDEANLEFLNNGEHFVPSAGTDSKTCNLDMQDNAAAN
Protocol: The potential of Compound A to act as an efflux transporter Pgp and BCRP as well as uptake transporter OATP1B1 and 1B3 were assessed in Caco-2 and single transporter over-expressed HEK29 cells, respectively.
The potential of Compound A to act as a substrate for Pgp and BCRP was examined in Caco-2 cells at the concentrations of 0.075, 0.75, 3.75 and 7.5 μM containing 1% of BSA. After 120 min incubation, the bidirectional permeability of Compound A was determined by LC-MS/MS. The involvement of Compound A as a substrate of OATP1B1 and OATP1B3 was assessed in the uptake transporter substrate assays at 4 concentrations (0.1, 0.5, 1 and 5 μM). Compound A in cell lysates was determined by LC-MS/MS.

CYP2B6 mRNA = CYP2B6 mRNA induction in cryopreserved human hepatocytes; settings: 0.03-30 μM; for CYP2B6 mRNA Fold induction: human hepatocytes, 48 hours
Protocol: The induction potential of Compound A on CYP enzymes was assessed in cryopreserved human hepatocytes from three donors. Following treatment for with Compound A at concentrations of 0.03-30 μM for 48 hours, mRNA levels for CYP1A2, 2B6, 2C8, 2C9, 2C19, and 3A4 were determined by semiquantitative real-time polymerase chain reaction (PCR). Test article concentrations during 24-hour incubation were determined. The potential of Compound A to cause direct and time-dependent inhibition (TDI) of the activities of CYP1A2, 2B6, 2C8, 2C9, 2C19, 2D6, and 3A4 was evaluated in pooled human liver microsomes (HLM) at 0.2-15 μM. Probe substrate concentrations around Km were used for direction inhibition and initial TDI assays. For TDI assay, Compound A was pre-incubated with pooled HLM with and without NADPH for 30 minutes prior to incubation with a single concentration of probe substrate.

OATP1B1 = molecular target: T2, OATP1B1 (Homo sapiens, UniProt Q9Y6L6); experiment: OATP1B1 uptake transporter inhibition in MDCKII or HEK293 cells; parameters: expressed in transfected cells; host or cells: MDCKII or HEK293; settings: substrate Rosuvastatin (1 μM)
T2 sequence (Q9Y6L6 1-691): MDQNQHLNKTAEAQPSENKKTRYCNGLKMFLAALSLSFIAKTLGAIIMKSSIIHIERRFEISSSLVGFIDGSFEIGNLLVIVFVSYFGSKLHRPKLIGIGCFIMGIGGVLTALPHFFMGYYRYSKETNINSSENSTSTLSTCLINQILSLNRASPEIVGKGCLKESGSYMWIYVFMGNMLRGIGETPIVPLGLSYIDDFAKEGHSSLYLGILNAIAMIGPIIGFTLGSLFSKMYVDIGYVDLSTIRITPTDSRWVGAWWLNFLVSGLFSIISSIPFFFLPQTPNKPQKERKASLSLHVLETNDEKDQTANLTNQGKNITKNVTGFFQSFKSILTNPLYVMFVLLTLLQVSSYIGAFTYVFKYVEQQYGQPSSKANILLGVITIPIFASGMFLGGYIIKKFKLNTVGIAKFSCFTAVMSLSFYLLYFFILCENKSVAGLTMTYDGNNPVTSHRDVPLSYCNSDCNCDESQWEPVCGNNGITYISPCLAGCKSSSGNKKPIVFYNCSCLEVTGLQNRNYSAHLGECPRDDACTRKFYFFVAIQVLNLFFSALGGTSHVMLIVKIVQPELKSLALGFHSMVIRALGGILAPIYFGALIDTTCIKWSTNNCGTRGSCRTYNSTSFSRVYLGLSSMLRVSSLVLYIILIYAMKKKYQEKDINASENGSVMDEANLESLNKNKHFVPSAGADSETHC
Protocol: In addition, the inhibition potential against efflux transporters (P-glycoprotein (Pgp) and breast cancer resistance protein (BCRP)) and uptake transporters (MATE1, MATE2-K, OATP1B1, OATP1B3, OAT1, OAT3, and OCT2) was assessed using single transporter over-expressed cell monolayers (MDCK II or HEK293) or inside-out vesicles.
The potential of Compound A to inhibit Pgp or BCRP was tested for bidirectional transport of the probe substrates in Pgp or BCRP-expressed MDCKII and control monolayers at Compound A concentrations of 0.07-5 μM. Pgp and BCR inhibition were tested in inside-out membrane vesicles prepared from HEK293 overexpressing human Pgp and BCR at concentrations of 0.01-9 μM Compound A in the presence of 4 mM MgATP or MgAMP.

In the case of `COc1cc(O[C@H]2C(C)(C)[C@H](NC(=O)c3ccc(N4CCC(CN5CCN(c6ccc(C(=O)N[C@H]7CCC(=O)NC7=O)c(F)c6)CC5)CC4)cc3)C2(C)C)ccc1C#N` [Compound A, 4-(4-((1-(4-(((1R,3R)-3-(4-cyano-3-methoxyphenoxy)-2,2,4,4-tetramethylcyclobutyl)carbamoyl)phenyl)piperidin-4-yl)methyl)piperazin-1-yl)-N—((S)-2,6-dioxopiperidin-3-yl)-2-fluorobenzamide], the “Fold accumulation, OATP1B3” value (OATP1B3) is reported as under 2 fold, the “Substrate for OATP1B3” value (OATP1B3; 0.1, 0.5, 1 and 5 μM) is reported as “not a substrate” and the “CYP2B6 mRNA Fold induction” value (CYP2B6 mRNA; Donor 1) is reported as under 2 Fold. For the same molecule, the “CYP2B6 mRNA Fold induction” value (CYP2B6 mRNA; Donor 2) was under 2 Fold, the “CYP2B6 mRNA Fold induction” value (CYP2B6 mRNA; Donor 3) was under 2 Fold and the “Induction of CYP2B6 mRNA” value (CYP2B6 mRNA; all three donors of human hepatocytes) was “did not induce”. For the same molecule, the IC50 (OATP1B1) was over 3.75 µM.
